Source: ChEMBL document CHEMBL4396971, “Discovery of potent and orally bioavailable indazole-based glucagon receptor antagonists for the treatment of type 2 diabetes” (Bioorg Med Chem Lett, 2019)

system: not listed separately; assay: Stability in human liver microsomes assessed as parent compound remaining at 1 uM incubated for 10 mins; assay type: ADME, Microsome; conditions: read-out: Stability

remaining at 10 min, 1 µM [%]	Structure (SMILES)
118	Cc1c(-c2ccc(C(F)(F)F)cc2Cl)ccc2nn([C@@H](CC(C)C)c3ccc(C(=O)NCCC(=O)O)cc3)cc12

system: not listed separately; assay: Stability in mouse liver microsomes assessed as parent compound remaining at 1 uM incubated for 10 mins; assay type: ADME, Microsome; conditions: liver microsomes, read-out: Stability

remaining at 10 min, 1 µM [%]	Structure (SMILES)
97	Cc1c(-c2ccc(C(F)(F)F)cc2Cl)ccc2nn([C@@H](CC(C)C)c3ccc(C(=O)NCCC(=O)O)cc3)cc12

system: not listed separately; assay: Stability in rat liver microsomes assessed as parent compound remaining at 1 uM incubated for 10 mins; assay type: ADME, Microsome; conditions: read-out: Stability

remaining at 10 min, 1 µM [%]	Structure (SMILES)
107	Cc1c(-c2ccc(C(F)(F)F)cc2Cl)ccc2nn([C@@H](CC(C)C)c3ccc(C(=O)NCCC(=O)O)cc3)cc12

system: not listed separately; assay: Stability in dog liver microsomes assessed as parent compound remaining at 1 uM incubated for 10 mins; assay type: ADME, Canis lupus familiaris, Microsome; conditions: liver microsomes, read-out: Stability

remaining at 10 min, 1 µM [%]	Structure (SMILES)
75	Cc1c(-c2ccc(C(F)(F)F)cc2Cl)ccc2nn([C@@H](CC(C)C)c3ccc(C(=O)NCCC(=O)O)cc3)cc12

biological target: Glucagon receptor (Homo sapiens, UniProt P47871); assay: Inhibition of human full length GCGR transfected in HEK293 cells assessed as reduction in glucagon-induced cAMP response by LANCE TR-FRET assay; assay type: functional, cell-based; conditions: not given
Sequence (P47871 whole entry): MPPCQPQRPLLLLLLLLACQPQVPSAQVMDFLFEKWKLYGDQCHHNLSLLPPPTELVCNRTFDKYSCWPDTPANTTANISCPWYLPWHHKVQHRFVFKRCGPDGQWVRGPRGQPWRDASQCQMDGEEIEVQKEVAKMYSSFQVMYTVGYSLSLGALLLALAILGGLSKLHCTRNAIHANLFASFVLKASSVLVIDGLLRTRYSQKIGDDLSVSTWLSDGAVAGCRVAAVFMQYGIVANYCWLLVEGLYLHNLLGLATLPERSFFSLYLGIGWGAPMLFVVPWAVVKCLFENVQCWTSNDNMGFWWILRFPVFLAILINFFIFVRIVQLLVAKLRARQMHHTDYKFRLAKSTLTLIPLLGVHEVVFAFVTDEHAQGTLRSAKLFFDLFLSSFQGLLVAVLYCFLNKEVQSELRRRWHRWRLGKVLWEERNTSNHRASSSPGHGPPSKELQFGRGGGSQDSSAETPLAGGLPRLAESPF

Ki [nM]	Structure (SMILES)
23	Cc1c(-c2ccc(C(F)(F)F)cc2Cl)ccc2nn([C@@H](CC(C)C)c3ccc(C(=O)NCCC(=O)O)cc3)cc12

system: not listed separately; assay: Clearance in C57 mouse at 5 mg/kg, iv or 20 mg/kg, po; assay type: ADME, organism-based; conditions: in vivo

clearance [mL/min/kg]	Structure (SMILES)
10.2	Cc1c(-c2ccc(C(F)(F)F)cc2Cl)ccc2nn([C@@H](CC(C)C)c3ccc(C(=O)NCCC(=O)O)cc3)cc12

system: not listed separately; assay: Clearance in Sprague-Dawley rat at 2 mg/kg, iv or 10 mg/kg, po; assay type: ADME, organism-based; conditions: in vivo

clearance [mL/min/kg]	Structure (SMILES)
26.5	Cc1c(-c2ccc(C(F)(F)F)cc2Cl)ccc2nn([C@@H](CC(C)C)c3ccc(C(=O)NCCC(=O)O)cc3)cc12

system: not listed separately; assay: Clearance in dog at 2 mg/kg, iv or 10 mg/kg, po; assay type: ADME, organism-based, Canis lupus familiaris; conditions: in vivo

clearance [mL/min/kg]	Structure (SMILES)
0.42	Cc1c(-c2ccc(C(F)(F)F)cc2Cl)ccc2nn([C@@H](CC(C)C)c3ccc(C(=O)NCCC(=O)O)cc3)cc12

system: not listed separately; assay: Volume of distribution at steady state in C57 mouse at 5 mg/kg, iv or 20 mg/kg, po; assay type: ADME, organism-based; conditions: in vivo, read-out: Vdss

Vd [L/kg]	Structure (SMILES)
2.24	Cc1c(-c2ccc(C(F)(F)F)cc2Cl)ccc2nn([C@@H](CC(C)C)c3ccc(C(=O)NCCC(=O)O)cc3)cc12

system: not listed separately; assay: Volume of distribution at steady state in Sprague-Dawley rat at 2 mg/kg, iv or 10 mg/kg, po; assay type: ADME, organism-based; conditions: in vivo, read-out: Vdss

Vd [L/kg]	Structure (SMILES)
2.46	Cc1c(-c2ccc(C(F)(F)F)cc2Cl)ccc2nn([C@@H](CC(C)C)c3ccc(C(=O)NCCC(=O)O)cc3)cc12

system: not listed separately; assay: Volume of distribution at steady state in dog at 2 mg/kg, iv or 10 mg/kg, po; assay type: ADME, organism-based, Canis lupus familiaris; conditions: in vivo, read-out: Vdss

Vd [L/kg]	Structure (SMILES)
0.17	Cc1c(-c2ccc(C(F)(F)F)cc2Cl)ccc2nn([C@@H](CC(C)C)c3ccc(C(=O)NCCC(=O)O)cc3)cc12

system: not listed separately; assay: Half life in C57 mouse at 5 mg/kg, iv; assay type: ADME, organism-based; conditions: in vivo

half-life [h]	Structure (SMILES)
2.8	Cc1c(-c2ccc(C(F)(F)F)cc2Cl)ccc2nn([C@@H](CC(C)C)c3ccc(C(=O)NCCC(=O)O)cc3)cc12

system: not listed separately; assay: Half life in Sprague-Dawley rat at 2 mg/kg, iv; assay type: ADME, organism-based; conditions: in vivo

half-life [h]	Structure (SMILES)
1.9	Cc1c(-c2ccc(C(F)(F)F)cc2Cl)ccc2nn([C@@H](CC(C)C)c3ccc(C(=O)NCCC(=O)O)cc3)cc12

system: not listed separately; assay: Half life in dog at 2 mg/kg, iv; assay type: ADME, organism-based, Canis lupus familiaris; conditions: in vivo

half-life [h]	Structure (SMILES)
5.5	Cc1c(-c2ccc(C(F)(F)F)cc2Cl)ccc2nn([C@@H](CC(C)C)c3ccc(C(=O)NCCC(=O)O)cc3)cc12

system: not listed separately; assay: Half life in C57 mouse at 20 mg/kg, po; assay type: ADME, organism-based; conditions: in vivo

half-life [h]	Structure (SMILES)
3.1	Cc1c(-c2ccc(C(F)(F)F)cc2Cl)ccc2nn([C@@H](CC(C)C)c3ccc(C(=O)NCCC(=O)O)cc3)cc12

system: not listed separately; assay: Half life in Sprague-Dawley rat at 10 mg/kg, po; assay type: ADME, organism-based; conditions: in vivo

half-life [h]	Structure (SMILES)
7.7	Cc1c(-c2ccc(C(F)(F)F)cc2Cl)ccc2nn([C@@H](CC(C)C)c3ccc(C(=O)NCCC(=O)O)cc3)cc12

system: not listed separately; assay: Half life in dog at 10 mg/kg, po; assay type: ADME, organism-based, Canis lupus familiaris; conditions: in vivo

half-life [h]	Structure (SMILES)
7.3	Cc1c(-c2ccc(C(F)(F)F)cc2Cl)ccc2nn([C@@H](CC(C)C)c3ccc(C(=O)NCCC(=O)O)cc3)cc12

system: not listed separately; assay: AUClast in C57 mouse at 5 mg/kg, iv or 20 mg/kg, po; assay type: ADME, organism-based; conditions: in vivo

AUC(0-t) [µM·h]	Structure (SMILES)
44.9	Cc1c(-c2ccc(C(F)(F)F)cc2Cl)ccc2nn([C@@H](CC(C)C)c3ccc(C(=O)NCCC(=O)O)cc3)cc12
